From patent publication US11001590B2, “Pyrazolopyrimidine derivatives” (BAYER ANIMAL HEALTH GMBH, priority 2016, dated 2021)

What was measured:
[1] = tested on: Dirofilaria immitis microfilariae; test: In vitro assay 3: Dirofilaria immitis microfilariae (DIROIM L1), motility; conditions: 72 h, reduction of motility vs negative control, 72 h incubation
Cooperia curticei = test: In vitro assay 5: Cooperia curticei (COOPCU), larval mortality; conditions: 120 h, read-out: activity (percentage of larval mortality)
Protocol: In Vitro Assay 5: Cooperia curticei (COOPCU)
Solvent: Dimethyl Sulfoxide
Approximately 40 nematode larvae (Cooperia curticei) are transferred into a test tube containing the compound solution.
After 5 days percentage of larval mortality is recorded. 100% efficacy means all larvae are killed; 0% efficacy means no larvae are killed.

[2] = tested on: Litomosoides sigmodontis third-stage larvae; test: In vitro assay 7: Litomosoides sigmodontis L3 (LTMOSI), motility; conditions: 72 h, reduction of motility vs negative control, 72 h incubation
[3] = log P by HPLC on reversed phase columns (Method L0; [a] acidic, [b] neutral range)
Protocol: Calibration was done with straight-chain alkan-2-ones (with 3 to 16 carbon atoms) with known log P values (measurement of log P values using retention times with linear interpolation between successive alkanones). Lambda-max-values were determined using UV-spectra from 200 nm to 400 nm and the peak values of the chromatographic signals.

C. elegans Slo-1a = C. elegans Slo-1a (Caenorhabditis elegans, UniProt Q95V25); test: In vitro assay 1: C. elegans Slo-1a, action at a recombinant C. elegans CHO cell line (membrane potential measurement)
Sequence of C. elegans Slo-1a (Q95V25 whole entry): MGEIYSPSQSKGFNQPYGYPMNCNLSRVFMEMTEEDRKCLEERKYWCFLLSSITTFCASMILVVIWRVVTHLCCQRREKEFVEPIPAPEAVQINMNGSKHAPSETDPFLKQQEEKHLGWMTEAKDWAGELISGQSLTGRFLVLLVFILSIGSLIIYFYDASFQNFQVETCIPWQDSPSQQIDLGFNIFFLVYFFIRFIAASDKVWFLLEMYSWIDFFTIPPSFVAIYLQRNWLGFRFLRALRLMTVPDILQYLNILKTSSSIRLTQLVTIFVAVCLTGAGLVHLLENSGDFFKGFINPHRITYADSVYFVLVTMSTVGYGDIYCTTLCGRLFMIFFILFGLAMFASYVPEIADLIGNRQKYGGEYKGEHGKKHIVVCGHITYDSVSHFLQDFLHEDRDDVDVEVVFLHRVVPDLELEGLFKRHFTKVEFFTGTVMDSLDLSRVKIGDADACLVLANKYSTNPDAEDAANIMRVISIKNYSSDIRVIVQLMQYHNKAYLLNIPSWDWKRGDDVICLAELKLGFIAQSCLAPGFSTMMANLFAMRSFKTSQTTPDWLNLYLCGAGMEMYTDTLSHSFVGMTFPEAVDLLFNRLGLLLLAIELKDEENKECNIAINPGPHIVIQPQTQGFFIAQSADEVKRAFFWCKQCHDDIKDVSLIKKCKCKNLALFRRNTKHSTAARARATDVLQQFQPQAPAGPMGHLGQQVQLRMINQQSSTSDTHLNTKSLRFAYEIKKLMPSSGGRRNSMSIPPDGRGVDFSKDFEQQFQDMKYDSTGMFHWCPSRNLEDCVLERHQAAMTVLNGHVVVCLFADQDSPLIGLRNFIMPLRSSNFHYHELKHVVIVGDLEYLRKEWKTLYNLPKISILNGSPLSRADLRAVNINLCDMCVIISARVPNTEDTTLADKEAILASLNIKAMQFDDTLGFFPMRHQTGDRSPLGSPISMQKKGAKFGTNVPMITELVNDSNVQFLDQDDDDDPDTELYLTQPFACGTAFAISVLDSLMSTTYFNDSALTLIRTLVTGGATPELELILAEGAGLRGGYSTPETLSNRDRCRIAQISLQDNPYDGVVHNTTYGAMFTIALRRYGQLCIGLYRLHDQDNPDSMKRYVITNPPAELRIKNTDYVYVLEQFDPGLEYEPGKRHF

[4] = tested on: Nippostrongylus brasiliensis; test: In vitro assay 2: Nippostrongylus brasiliensis (NIPOBR), acetylcholine esterase readout; conditions: adult worms, read-out: activity (reduction of AChE compared to negative control); for inhibition at 10 µg/mL: 10 μg/ml (10 ppm); for inhibition at 1 µg/mL: 1 μg/ml (1 ppm)
Protocol: In Vitro Assay 2: Nippostronqylus Brasiliensis (NIPOBR)
Adult Nippostrongylus brasiliensis were washed with saline buffer containing 100 U/ml penicillin, 0.1 mg/ml streptomycin and 2.5 μg/ml amphotericin B. Test compounds were dissolved in DMSO and worms were incubated in medium in a final concentration of 10 μg/ml (10 ppm) respectively 1 μg/ml (1 ppm). An aliquot of the medium was used to determine the acetylcholine esterase activity in comparison to a negative control. The principle of measuring acetylcholine esterase as readout for anthelmintic activity was described in Rapson et al (1986) and Rapson et al (1987).

[5] = tested on: Dirofilaria immitis third-stage larvae; test: In vitro assay 4: Dirofilaria immitis (DIROIM L4), motility of larvae; conditions: 72 h
Haemonchus contortus = test: In vitro assay 6: Haemonchus contortus (HAEMCO), larval mortality
Protocol: In Vitro Assay 6: Haemonchus contortus (HAEMCO)
Solvent: dimethyl sulfoxide
Approximately 40 larvae of the red stomach worm (Haemonchus contortus) are transferred into a test tube containing compound solution.
After 5 days the percentage of larval mortality is recorded. 100% efficacy means all larvae are killed, 0% efficacy means no larvae are killed.

[6] = Haemonchus contortus, 120 h, read-out: activity (percentage of larval mortality)

| SMILES | EC50 [1] [mg/L] | mortality at 20 ppm (Cooperia curticei) [%] | EC50 [2] [mg/L] | chromatographic logP [3] | EC50 (C. elegans Slo-1a) [nM] | inhibition at 10 µg/mL [4] [%] | EC50 [5] [mg/L] | inhibition at 1 µg/mL [4] [%] | mortality at 4 ppm (Haemonchus contortus; [6]) [%] | activity (percentage of larval mortality) (Haemonchus contortus; application rate 20 ppm, after 5 days) [%] | pE50 (C. elegans Slo-1a; CHO cells expressing C. elegans Slo-1a, voltage sensitive dye, FLIPR Tetra, negative decadic logarithm of EC50) | mortality at 20 ppm (Haemonchus contortus; [6]) [%] |
| --- | --- | --- | --- | --- | --- | --- | --- | --- | --- | --- | --- | --- |
| Cc1nn2c(C(C)C)c(C(=O)N[C@H]3CCOc4ccccc43)cnc2c1-c1cccc(C(F)(F)F)c1 [Example 6] | < 1 | 80 | < 1 | 5.03 | 12.6 | – | – | – | – | – | – | – |
| Cc1nn2c(C(C)C)c(C(=O)N[C@H]3CCOc4ccccc43)cnc2c1-c1ccc(F)c(Cl)c1 [Example 186] | < 0.1 | – | < 0.1 | 5.01 | 15.8 | > 80 | < 0.1 | – | – | – | – | – |
| Cc1nn2c(C(C)C)c(C(=O)N[C@H]3CCOc4ccccc43)cnc2c1-c1cccc(Cl)c1F [Example 189] | < 0.1 | – | < 0.1 | 4.72 | 1.26 | > 80 | < 0.1 | – | – | – | – | – |
| Cc1nn2c(C(C)C)c(C(=O)N[C@H]3CCOc4ccccc43)cnc2c1-c1cc(Cl)c(F)c(Cl)c1 [Example 194] | < 0.1 | – | < 0.1 | 5.65 | 12.6 | > 80 | < 0.1 | > 80 | – | – | – | – |
| Cc1nn2c(C(C)C)c(C(=O)N[C@H]3CCOc4ccccc43)cnc2c1-c1ncc(Cl)cc1Cl [Example 208] | < 0.1 | – | < 0.1 | 4.27 | 1.58 | > 80 | < 0.1 | > 80 | – | – | – | – |
| Cc1nn2c(C(C)C)c(C(=O)N[C@H]3CCOc4ccccc43)cnc2c1-c1ccc(F)c(Cl)c1F [Example 213] | < 0.1 | – | < 0.1 | 4.8 | 1.58 | > 80 | < 0.1 | – | – | – | – | – |
| COc1ccc(F)c(-c2c(C)nn3c(C(C)C)c(C(=O)N[C@H]4CCOc5ccccc54)cnc23)c1F [Example 232] | < 1 | 80 | < 0.1 | 4.04 | 5.01 | > 80 | < 0.1 | – | – | – | – | – |
| Cc1nn2c(C(C)C)c(C(=O)N[C@H]3CCOc4ccccc43)cnc2c1-c1c(F)cc(F)cc1F [Example 236] | < 1 | – | < 0.1 | 4.3 | 2 | > 80 | < 0.1 | > 80 | – | – | – | – |
| Cc1nn2c(C(C)C)c(C(=O)N[C@H]3CCOc4ccccc43)cnc2c1-c1cc(Cl)cc(C(F)(F)F)c1 [Example 240] | < 1 | 90 | – | 5.65 | 5.01 | > 80 | – | > 80 | – | – | – | – |
| COc1cc(-c2c(C)nn3c(C(C)C)c(C(=O)N[C@H]4CCOc5ccccc54)cnc23)cc(F)c1F [Example 241] | < 1 | – | < 0.1 | 4.6 | 6.31 | > 80 | < 0.1 | > 80 | – | – | – | – |
| COc1cc(-c2c(C)nn3c(C(C)C)c(C(=O)N[C@H]4CCOc5ccccc54)cnc23)ccc1F [Example 244] | < 1 | 90 | < 0.1 | 4.32 | 6.31 | > 80 | < 0.1 | > 80 | – | – | – | – |
| Cc1nn2c(C(C)C)c(C(=O)N[C@H]3CCOc4ccccc43)cnc2c1-c1c(F)cc(Cl)cc1F [Example 246] | < 0.1 | – | < 0.1 | 4.82 | 6.31 | > 80 | < 0.1 | > 80 | – | – | – | – |
| Cc1nn2c(C(C)C)c(C(=O)N[C@H]3CCOc4ccccc43)cnc2c1-c1c(F)ccc(F)c1F [Example 253] | < 0.1 | – | < 0.1 | 4.32 | 1.26 | > 80 | < 0.1 | – | 80 | – | – | – |
| Cc1nn2c(C(C)C)c(C(=O)N[C@H]3CCOc4ccccc43)cnc2c1-c1c(Cl)ccc(F)c1F [Example 258] | < 1 | – | < 0.1 | 4.46 | 1.58 | > 80 | < 0.1 | > 80 | – | – | – | – |
| Cc1nn2c(C(C)C)c(C(=O)N[C@H]3CCc4ccccc43)cnc2c1-c1cc(Cl)cc(Cl)c1F [Example 261] | < 0.1 | 80 | – | 5.65 | 1.58 | > 80 | < 0.1 | > 80 | – | – | – | – |
| Cc1nn2c(C(C)C)c(C(=O)N[C@H]3CCOc4ccccc43)cnc2c1-c1cc(Cl)cc(Cl)c1F [Example 262] | < 0.1 | 90 | < 0.1 | 5.36 | 0.501 | > 80 | < 0.1 | > 80 | – | – | – | – |
| Cc1nn2c(C(C)C)c(C(=O)N[C@H]3CCc4ccccc43)cnc2c1-c1cccc(N(C)C)c1 [Example 299] | < 0.1 | 80 | – | 3.9 | 15.8 | – | – | – | – | – | – | – |
| Cc1nn2c(C(C)C)c(C(=O)N[C@H]3CCc4ccccc43)cnc2c1-c1cc(Cl)cc(C(F)(F)F)c1 [Example 317] | < 1 | – | < 0.1 | 6.07 | 15.8 | > 80 | < 0.1 | – | – | – | – | – |
| COc1cc(Cl)cc(-c2c(C)nn3c(C(C)C)c(C(=O)N[C@H]4CCOc5ccccc54)cnc23)c1 [Example 403] | < 0.1 | – | < 0.1 | 4.96 | 158 | > 80 | < 0.1 | – | – | – | – | – |
| Cc1nn2c(C3CC3)c(C(=O)N[C@H]3CCc4ccccc43)cnc2c1-c1c(F)cccc1Cl [Example 442] | < 0.1 | – | < 0.1 | 3.89 | 2 | > 80 | < 0.1 | – | – | – | – | – |
| Cc1nn2c(C3CC3)c(C(=O)N[C@H]3CCOc4ccccc43)cnc2c1-c1cccc(N(C)C)c1 [Example 453] | < 1 | 80 | – | 2.72 | 2.51 | > 80 | – | – | – | – | – | – |
| Cc1nn2c(C3CC3)c(C(=O)N[C@H]3CCOc4ccccc43)cnc2c1-c1c(Cl)cccc1Cl [Example 467] | < 0.1 | – | < 0.1 | 3.88 | 0.398 | > 80 | < 0.1 | – | – | – | – | – |
| Cc1nn2c(C3CC3)c(C(=O)N[C@H]3CCOc4ccccc43)cnc2c1-c1cccc(Cl)c1Cl [Example 473] | < 0.1 | 90 | < 0.1 | 4.07 | 0.501 | > 80 | < 0.1 | > 80 | – | – | – | – |
| Cc1nn2c(C3CC3)c(C(=O)N[C@H]3CCOc4ccccc43)cnc2c1-c1cccc2c1CCN2C [Example 474] | < 1 | 90 | < 0.1 | 3.25 | 6.31 | > 80 | < 0.1 | – | – | – | – | – |
| Cc1nn2c(C3CC3)c(C(=O)N[C@H]3CCOc4ccccc43)cnc2c1-c1ccc(F)cc1Cl [Example 475] | < 0.1 | – | < 0.1 | 3.79 | 2 | – | < 0.1 | > 80 | – | – | – | – |
| CCc1c(C(=O)N[C@H]2CCOc3ccccc32)cnc2c(-c3c(F)ccc(Cl)c3F)c(C)nn12 [Example 489] | – | – | – | – | – | – | – | – | – | 90 | 8.8 | – |
| Cc1nn2c(N3CCOCC3)c(C(=O)N[C@H]3CCOc4ccccc43)cnc2c1-c1cccc(C(F)(F)F)c1Cl [Example 532] | < 0.1 | 100 | – | 5.59 | 1 | – | – | – | – | – | – | 90 |
| COc1c(F)ccc(-c2c(C)nn3c(N4CCOCC4)c(C(=O)N[C@H]4CCOc5ccccc54)cnc23)c1F [Example 533] | < 0.1 | – | < 0.1 | 4.46 | 1.26 | – | < 0.1 | > 80 | – | – | – | – |
| Cc1nn2c(C3CC3)c(C(=O)N[C@H]3CCOc4ccccc43)cnc2c1-c1cc(Cl)cc(Cl)c1Cl [Example 538] | < 0.1 | – | < 0.1 | 4.8 | 0.316 | – | < 0.1 | > 80 | – | – | – | – |
| CNc1c(C(=O)N[C@H]2CCOc3ccccc32)cnc2c(-c3cccc(Cl)c3Cl)c(C)nn12 [Example 548] | < 0.1 | 90 | – | 4.18 | 6.31 | – | – | – | – | – | – | 90 |
